Source: US12685781B2, “Anti-HER3 antibody-drug conjugate” (DAIICHI SANKYO COMPANY, LIMITED, priority 2014, dated 2026)

Tests used:
[1] = Stability of released drug derivative; type: physicochemical; details: self-degradation to release HO—CH2—C(═O)—(NH-DX)
Excerpt: Meanwhile, in case of NH2—CH2—O—CH2—C(═O)—(NH-DX), it was confirmed that, as the aminal structure in the molecule is unstable, it again undergoes a self-degradation to release the following HO—CH2—C(═O)—(NH-DX). Those compounds can be also preferably used as a production intermediate of the antibody-drug conjugate of the present invention.

topoisomerase I = biological target: T1, topoisomerase I (Homo sapiens, UniProt P11387); details: cited from earlier work
T1 sequence (P11387 1-765): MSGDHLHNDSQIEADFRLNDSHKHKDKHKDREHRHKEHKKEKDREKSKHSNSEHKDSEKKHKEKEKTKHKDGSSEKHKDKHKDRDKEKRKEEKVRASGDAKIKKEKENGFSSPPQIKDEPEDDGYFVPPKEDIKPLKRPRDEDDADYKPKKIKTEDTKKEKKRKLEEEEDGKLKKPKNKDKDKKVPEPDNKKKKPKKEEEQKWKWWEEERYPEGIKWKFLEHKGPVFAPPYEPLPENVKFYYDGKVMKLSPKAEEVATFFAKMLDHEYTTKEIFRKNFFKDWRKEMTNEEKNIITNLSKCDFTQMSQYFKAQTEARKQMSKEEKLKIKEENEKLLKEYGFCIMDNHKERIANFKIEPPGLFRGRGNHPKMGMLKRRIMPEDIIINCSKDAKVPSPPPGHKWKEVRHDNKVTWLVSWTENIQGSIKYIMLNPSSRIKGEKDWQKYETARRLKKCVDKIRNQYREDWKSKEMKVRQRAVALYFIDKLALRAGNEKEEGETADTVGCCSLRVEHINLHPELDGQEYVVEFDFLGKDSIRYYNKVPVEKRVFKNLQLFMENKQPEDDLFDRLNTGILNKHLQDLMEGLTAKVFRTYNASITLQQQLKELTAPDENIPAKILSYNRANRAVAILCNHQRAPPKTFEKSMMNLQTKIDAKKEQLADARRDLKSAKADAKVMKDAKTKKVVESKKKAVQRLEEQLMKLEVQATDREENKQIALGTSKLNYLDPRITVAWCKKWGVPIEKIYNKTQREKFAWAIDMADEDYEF

various cancer cells = details: cited from earlier work
human tumor = human tumor subcutaneously transplanted; cited from earlier work

## CC[C@@]1(O)C(=O)OCc2c1cc1n(c2=O)Cc2c-1nc1cc(F)c(C)c3c1c2[C@@H](NC(=O)COCN)CC3 [NH2—CH2—O—CH2—C(═O)—(NH-DX)]
[1]
  stability of the aminal structure in the molecule: unstable

## CC[C@@]1(O)C(=O)OCc2c1cc1n(c2=O)Cc2c-1nc1cc(F)c(C)c3c1c2[C@@H](N)CC3 [exatecan, (1S,9S)-1-amino-9-ethyl-5-fluoro-2,3-dihydro-9-hydroxy-4-methyl-1H,12H-benzo[de]pyrano[3′,4′:6,7]indolizino[1,2-b]quinolin-10,13(9H,15H)-dione]
Topoisomerase I
  inhibitory activity on topoisomerase I compared to SN-38 and topotecan: higher inhibitory activity
Various cancer cells
  cytocidal activity in vitro compared to SN-38 and topotecan: higher cytocidal activity
Human tumor
  antitumor effect: potent antitumor effect
